# Experimental data from patent publication US9273057B2 (Bristol-Myers Squibb Company, priority 2012, dated 2016).
# Where a name gives a salt, the structure may show the parent alone.
# Molecular target: CK2A1 (CK2α/β) (Homo sapiens, UniProt P68400)
# Test: CK2 kinase assay, CK2A1 (CK2α/β)
# Assay type: biochemical
# Conditions: Table A; read-out: CK2A1 (CK2α/β) (IC50)
# Chain of CK2A1 (CK2α/β) (P68400 whole entry, species assumed): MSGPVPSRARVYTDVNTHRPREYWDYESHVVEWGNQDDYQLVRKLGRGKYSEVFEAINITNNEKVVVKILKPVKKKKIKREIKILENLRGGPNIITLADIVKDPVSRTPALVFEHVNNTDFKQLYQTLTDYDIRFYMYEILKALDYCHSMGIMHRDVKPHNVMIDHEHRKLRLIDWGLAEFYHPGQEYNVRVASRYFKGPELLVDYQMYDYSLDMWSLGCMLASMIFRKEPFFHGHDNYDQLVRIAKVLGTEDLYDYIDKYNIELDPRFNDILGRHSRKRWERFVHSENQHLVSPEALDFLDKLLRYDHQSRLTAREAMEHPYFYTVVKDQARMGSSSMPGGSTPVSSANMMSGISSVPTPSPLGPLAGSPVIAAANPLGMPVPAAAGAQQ
# Chain of CK2A1 (CK2α/β) (P67870 whole entry partner, species assumed): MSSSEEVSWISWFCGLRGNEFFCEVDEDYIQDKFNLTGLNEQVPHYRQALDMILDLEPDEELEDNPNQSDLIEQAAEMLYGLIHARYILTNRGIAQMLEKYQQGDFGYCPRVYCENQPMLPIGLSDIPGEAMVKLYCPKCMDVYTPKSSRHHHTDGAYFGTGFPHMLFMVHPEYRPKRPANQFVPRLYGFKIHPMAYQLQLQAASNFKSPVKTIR
row,IC50,SMILES
1,0.87 nM,"N#Cc1cc(Nc2nc(NC3CC3)c3ncc(C#N)n3n2)c(Cl)c(N2CCN(C3CN(C(=O)CC4CCOCC4)C3)CC2)c1 [Example 483, 2-{[2-chloro-5-cyano-3-(4-{1-[2-(oxan-4-yl)acetyl]azetidin-3-yl}piperazin-1-yl)phenyl]amino}-4-(cyclopropylamino)imidazo[2,1-f][1,2,4]triazine-7-carbonitrile]"
2,3.61 nM,"CCNc1nc(Nc2cc(C#N)cc(N3CC[C@H]4NCCO[C@@H]4C3)c2Cl)nn2c(C#N)cnc12 (racemic) [Example 371, (+/−)-2-((2-chloro-5-cyano-3-((4aR,8aR)-hexahydro-1H-pyrido[3,4-b][1,4]oxazin-6(7H)-yl)phenyl)amino)-4-(ethylamino)imidazo[2,1-f][1,2,4]triazine-7-carbonitrile]"
3,18.1 nM,"COC(=O)NC1CCN(c2cc(C#N)cc(Nc3nc(NC4CC4)c4ncc(C#N)n4n3)c2Cl)C[C@H]1N(C)CC(C)(C)O (stereo in doubt) [Example 767, methyl N-[(3R,4S)-1-(2-chloro-5-cyano-3-{[7-cyano-4-(cyclopropylamino)imidazo [2,1-f][1,2,4]triazin-2-yl]amino}phenyl)-3-[(2-hydroxy-2-methylpropyl)(methyl)amino]piperidin-4-yl] carbamate]"
4,7 nM,"CCNc1nc(Nc2cc(C#N)cc(N3CC[C@@H](NC(=O)OC)[C@@H](N(C)CC(C)(C)O)C3)c2Cl)nn2c(C#N)cnc12 [Example 771, methyl N-[(3S,4R)-1-(2-chloro-5-cyano-3-{[7-cyano-4-(ethylamino)imidazo[2,1-f][1,2,4]triazin-2-yl]amino}phenyl)-3-[(2-hydroxy-2-methylpropyl)(methyl)amino]piperidin-4-yl] carbamate]"
5,1.55 nM,"CC(C)(O)CC1(N2CCN(c3cc(C#N)cc(Nc4nc(NC5CC5)c5ncc(C#N)n5n4)c3Cl)CC2)COC1 [Example 536, 2-((2-chloro-5-cyano-3-(4-(3-(2-hydroxy-2-methylpropyl)oxetan-3-yl)piperazin-1-yl)phenyl)amino)-4-(cyclopropylamino)imidazo[2,1-f][1,2,4]triazine-7-carbonitrile]"
6,0.68 nM,"CN1CC(NC2CCN(c3cc(C#N)cc(Nc4nc(NC5CC5)c5ncc(C#N)n5n4)c3Cl)CC2)CC1=O (racemic) [Example 116, (+/−) 2-((2-chloro-5-cyano-3-(4-((1-methyl-5-oxo-3-pyrrolidinyl)amino)-1-piperidinyl)phenyl)amino)-4-(cyclopropylamino)imidazo [2,1-f][1,2,4]triazine-7-carbonitrile]"
7,0.79 nM,"N#Cc1cc(Nc2nc(NC3CC3)c3ncc(C#N)n3n2)c(Cl)c(N2CC[C@H](N)[C@H](F)C2)c1 [Example 283, 2-((3-((3R,4S)-4-amino-3-fluoropiperidin-1-yl)-2-chloro-5-cyanophenyl)amino)-4-(cyclopropylamino)imidazo[2,1-f][1,2,4]triazine-7-carbonitrile, HCl]"
8,1.4 nM,"N#Cc1cc(Nc2nc(NC3CC3)c3ncc(C#N)n3n2)c(Cl)c(N2CCN(C3CN(C(=O)C4CNCCO4)C3)CC2)c1 (centres unmarked) [Example 489, 2-[(2-chloro-5-cyano-3-{4-[1-(morpholine-2-carbonyl)azetidin-3-yl]piperazin-1-yl}phenyl)amino]-4-(cyclopropylamino)imidazo[2,1-f][1,2,4]triazine-7-carbonitrile]"
9,7.45 nM,"CCC(CO)(CO)C(=O)N1CC(N2CCN(c3cc(C#N)cc(Nc4nc(NC5CC5)c5ncc(C#N)n5n4)c3Cl)CC2)C1 [Example 524, 2-{[3-(4-{1-[2,2-bis(hydroxymethyl)butanoyl]azetidin-3-yl}piperazin-1-yl)-2-chloro-5-cyanophenyl]amino}-4-(cyclopropylamino)imidazo[2,1-f][1,2,4]triazine-7-carbonitrile]"
10,1.44 nM,"N#Cc1cc(Nc2nc(NC3CC3)c3ncc(C#N)n3n2)c(Cl)c(N2CCN(CCC(F)F)CC2)c1 [Example 595, 2-({2-chloro-5-cyano-3-[4-(3,3-difluoropropyl)piperazin-1-yl]phenyl}amino)-4-(cyclopropylamino)imidazo [2,1-f][1,2,4]triazine-7-carbonitrile]"
11,1 nM,"CC(=O)N1CCN(CC(O)c2cc(C#N)cc(Nc3nc(NC4CC4)c4ncc(C#N)n4n3)c2Cl)CC1 (centres unmarked) [Example 689, 2-((3-(2-(4-acetylpiperazin-1-yl)-1-hydroxyethyl)-2-chloro-5-cyanophenyl)amino)-4-(cyclopropylamino)imidazo[2,1-f][1,2,4]triazine-7-carbonitrile]"
12,0.38 nM,"CC1CN(c2cc(C#N)cc(Nc3nc(NC4CC4)c4ncc(C#N)n4n3)c2Cl)CCN1C (racemic) [Example 35, (+/−) 2-((2-chloro-5-cyano-3-(3,4-dimethyl-1-piperazinyl)phenyl)amino)-4-(cyclopropylamino)imidazo [2,1-f][1,2,4]triazine-7-carbonitrile]"
13,0.93 nM,"N#Cc1cc(Nc2nc(NC3CC3)c3ncc(C#N)n3n2)c(Cl)c(N2CCN(C3CN(C(=O)C4(O)CC4)C3)CC2)c1 [Example 481, 2-[(2-chloro-5-cyano-3-{4-[1-(1-hydroxycyclopropane-carbonyl)azetidin-3-yl]piperazin-1-yl}phenyl)amino]-4-(cyclopropylamino)imidazo[2,1-f][1,2,4]triazine-7-carbonitrile]"
14,1.57 nM,"N#CCC1(NC2CCN(c3cc(C#N)cc(Nc4nc(NC5CC5)c5ncc(C#N)n5n4)c3Cl)CC2)COC1 (racemic) [Example 114, (+/−) 2-((2-chloro-5-cyano-3-(4-((3-(cyanomethyl)-3-oxetanyl)amino)-1-piperidinyl)phenyl)amino)-4-(cyclopropylamino)imidazo [2,1-f][1,2,4]triazine-7-carbonitrile]"
15,0.72 nM,"COC[C@H](O)CN1CCN(c2cc(C#N)cc(Nc3nc(NC4CC4)c4ncc(C#N)n4n3)c2Cl)CC1 [Example 606, 2-[(2-chloro-5-cyano-3-{4-[(2R)-2-hydroxy-3-methoxypropyl]piperazin-1-yl}phenyl)amino]-4-(cyclopropylamino)imidazo [2,1-f][1,2,4]triazine-7-carbonitrile]"
16,1.08 nM,"CCNc1nc(Nc2cc(C#N)cc(N3CCN([C@H]4C[C@@H](O)C4)CC3)c2Cl)nn2c(C#N)cnc12 [Example 610, 2-[(2-chloro-5-cyano-3-{4-[(1a,3s)-3-hydroxycyclobutyl]piperazin-1-yl}phenyl)amino]-4-(ethylamino)imidazo[2,1-f][1,2,4]triazine-7-carbonitrile]"
17,0.16 nM,"CC(O)CCc1cc(Cl)c(Nc2nc(NC3CC3)c3ncc(C#N)n3n2)cc1C#N (centres unmarked) [Example 722, 2-{[2-chloro-5-cyano-4-(3-hydroxybutyl)phenyl]amino}-4-(cyclopropylamino)imidazo [2,1-f][1,2,4]triazine-7-carbonitrile]"
18,0.33 nM,"N#Cc1cc(Nc2nc(NC3CC3)c3ncc(C#N)n3n2)c(Cl)c(N2CC[C@@H](NC3COC3)C2)c1 [Example 44, 2-((2-chloro-5-cyano-3-((3R)-3-(3-oxetanylamino)-1-pyrrolidinyl)phenyl)amino)-4-(cyclopropylamino)imidazo [2,1-f][1,2,4]triazine-7-carbonitrile]"
19,0.44 nM,"CN1CC(OC(=O)N2CCN(c3cc(C#N)cc(Nc4nc(NC5CC5)c5ncc(C#N)n5n4)c3Cl)CC2)C1 [Example 592, 1-methylazetidin-3-yl 4-(2-chloro-5-cyano-3-{[7-cyano-4-(cyclopropylamino)imidazo [2,1-f][1,2,4]triazin-2-yl]amino}phenyl) piperazine-1-carboxylate]"
20,1.68 nM,"CN1CCC(N2CC(c3cc(C#N)cc(Nc4nc(NC5CC5)c5ncc(C#N)n5n4)c3Cl)C2)CC1 [Example 357, 2-((2-chloro-5-cyano-3-(1-(1-methylpiperidin-4-yl)azetidin-3-yl)phenyl)amino)-4-(cyclopropylamino)imidazo[2,1-f][1,2,4]triazine-7-carbonitrile]"
21,3.35 nM,"CO[C@@H](C)C(=O)N1CC(N2CCN(c3cc(C#N)cc(Nc4nc(NC5CC5)c5ncc(C#N)n5n4)c3Cl)CC2)C1 [Example 521, 2-{[2-chloro-5-cyano-3-(4-{1-[(2S)-2-methoxypropanoyl]azetidin-3-yl}piperazin-1-yl)phenyl]amino}-4-(cyclopropylamino)imidazo[2,1-f][1,2,4]triazine-7-carbonitrile]"
22,1.27 nM,"N#Cc1cc(Nc2nc(NC3CC3)c3ncc(C#N)n3n2)c(Cl)c(N2CCC3CCN(CC(O)CF)C3C2)c1 (racemic) [Example 459, (+/−)-2-((2-chloro-5-cyano-3-(1-(3-fluoro-2-hydroxypropyl)hexahydro-1H-pyrrolo[2,3-c]pyridin-6(2H)-yl)phenyl)amino)-4-(cyclopropylamino)imidazo[2,1-f][1,2,4]triazine-7-carbonitrile]"
23,2.48 nM,"COCCN(C)CC1CN(c2cc(C#N)cc(Nc3nc(NC4CC4)c4ncc(C#N)n4n3)c2Cl)CCO1 (centres unmarked) [Example 702, 2-{[2-chloro-5-cyano-3-(2-{[(2-methoxyethyl)(methyl)amino]methyl}morpholin-4-yl)phenyl]amino}-4-(cyclopropylamino)imidazo[2,1-f][1,2,4]triazine-7-carbonitrile]"
24,0.66 nM,"COC(=O)N[C@@H]1CN(c2cc(C#N)cc(Nc3nc(NC4CC4)c4ncc(C#N)n4n3)c2Cl)CC[C@H]1O (racemic) [Example 191, (+/−)-methyl ((3R,4R)-1-(2-chloro-5-cyano-3-((7-cyano-4-(cyclopropylamino)imidazo[2,1-f][1,2,4]triazin-2-yl)amino)phenyl)-4-hydroxypiperidin-3-yl)carbamate]"
25,0.7 nM,"N#Cc1cc(Nc2nc(NC3CC3)c3ncc(C#N)n3n2)c(Cl)c(N2CCN(C3(C#N)COC3)CC2)c1 [Example 104, 2-((2-chloro-5-cyano-3-(4-(3-cyano-3-oxetanyl)-1-piperazinyl)phenyl)amino)-4-(cyclopropylamino) imidazo[2,1-f][1,2,4] triazine-7-carbonitrile]"
26,1.1 nM,"CCNc1nc(Nc2cc(C#N)cc(N3CCN(C4(CCO)COC4)CC3)c2Cl)nn2c(C#N)cnc12 [Example 543, 2-((2-chloro-5-cyano-3-(4-(3-(2-hydroxyethyl)oxetan-3-yl)piperazin-1-yl)phenyl)amino)-4-(ethylamino)imidazo[2,1-f][1,2,4]triazine-7-carbonitrile]"
